Test results as given in ChEMBL document CHEMBL1201862, “PubChem BioAssay data set” (2004).
Active and inactive are the calls of the source.

Key:
[1] = test system: Streptococcus sp. 'group A'; assay: growth inhibition of control SK(-) GAS strain, dose response, counter-screen for streptokinase expression inhibitor project, luminescence, kanamycin, BacTiterGlo, confirmation (AID 1900); type: functional, organism-based
[2] = target: T1, Heat shock factor protein 1 (Mus musculus, UniProt P38532); assay: inhibition of MG132-induced HSE-luciferase signal, confirmation, cell-based, NIH3T3, luminescence, dose retest (AID 2382); type: functional;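 note: NIH3T3 fibroblasts with HSF1-driven luciferase reporter stressed by proteasome inhibitor MG132; luminescence from HSF1-driven luciferase expression after 8 hours of MG132 stress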
T1 sequence (P38532 whole entry): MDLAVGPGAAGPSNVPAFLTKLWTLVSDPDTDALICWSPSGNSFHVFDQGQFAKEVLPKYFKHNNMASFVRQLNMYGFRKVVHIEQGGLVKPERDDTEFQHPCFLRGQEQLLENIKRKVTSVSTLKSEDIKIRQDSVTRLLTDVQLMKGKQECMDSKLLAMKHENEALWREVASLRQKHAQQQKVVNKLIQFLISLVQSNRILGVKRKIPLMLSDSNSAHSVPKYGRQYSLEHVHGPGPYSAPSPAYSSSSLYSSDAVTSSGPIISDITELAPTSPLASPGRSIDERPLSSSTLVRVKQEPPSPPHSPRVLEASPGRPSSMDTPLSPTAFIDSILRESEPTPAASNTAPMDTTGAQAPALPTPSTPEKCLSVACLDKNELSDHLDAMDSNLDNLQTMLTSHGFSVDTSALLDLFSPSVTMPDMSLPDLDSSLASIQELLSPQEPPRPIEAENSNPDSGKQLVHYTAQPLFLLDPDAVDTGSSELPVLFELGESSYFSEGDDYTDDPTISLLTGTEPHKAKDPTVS

Streptococcus = assay: Group A Streptococcus viability loss, dose response, counter-screen for streptokinase expression inhibitor project, luminescence, BacTiterGlo (AID 1915); type: functional, organism-based;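 note: potency for reduction of bacterial viability or growth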
[3] = Luminescence Cell-Based Dose Retest to Confirm Inhibitors of Cancer Stem Cells. [Related pubchem assays (depositor defined):AID2717, AID2721]; type: functional, Homo sapiens; details: Homo sapiens
INS1 = assay: beta cell apoptosis inhibitors, cytokine rescue, dose response, luminescence, retest (AID 449756); type: functional, cell-based; details: Rattus norvegicus;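 note: cell death triggered by IL-1 beta plus TNF-alpha plus IFN-gamma mixture; protective hits raise ATP signal compared with cytokine alone wells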
[4] = Shn3 3'UTR reporter inhibitors, dose response, cell-based, Clone20 osteoblasts, firefly luciferase, cherry-picked (AID 624132); type: functional;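 note: firefly luciferase luminescence from reporter carrying the Shn3 3'UTR in osteoblasts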
[5] = reduction of Shn3 3'UTR firefly luciferase signal, dose response, Schnurri-3 inhibitor project, cell-based, Clone20 osteoblasts, cherry-pick, set 2 (AID 720490); type: functional;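 note: actives lower the luminescence signal as inhibitors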
[6] = inhibitors of control Renilla luciferase reporter, dose response, counter-screen for Shn3 3'UTR targeting project, Clone20-Shn3RL cells, dual-Glo, cherry-pick, set 2 (AID 720724); type: functional, cell-based; details: Dual-Go Shn3RL
[7] = inhibitors of non-replicating M. tuberculosis, dose response, luciferase, dry powder (AID 651619); type: functional; details: Mycobacterium tuberculosis
[8] = inhibitors of non-replicating M. tuberculosis, dose response, luciferase, dry powder (AID 651620); type: functional; details: Mycobacterium tuberculosis
Kallikrein-7 = Kallikrein-7 (Homo sapiens, UniProt P49862); assay: Fluorescence Intensity-based biochemical primary high throughput dose response assay to identify activators of kallikrein-7 (K7) zymogen.
[9] = Luminescence Cell-Based Dose Response HTS to Identify Inhibitors of 5'UTR Stem-Loop Driven Prion Protein mRNA Translation in H4 Neuroglioblastoma Cells. [Related pubchem assays: 1827 (Project Summary), 1813 (Primary HTS)]; type: functional
[10] = A549 cell cytotoxicity, dose response, cytotoxicity control, plate reader, cherry-pick, antagonist series (AID 743412); type: functional, cell-based
[11] = HepG2 cell cytotoxicity, dose response, cytotoxicity control, plate reader, cherry-pick, antagonist series (AID 743416); type: functional, cell-based
[12] = LGR2 antagonists, dose response, cell-based, HEK293, CRE-luciferase reporter, cherry pick, set 2 (AID 743343); type: functional;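 note: transfected cells were stimulated with diluted bursicon conditioned medium after compound addition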
[13] = MC4R antagonists, dose response, counter-screen for LGR2 antagonist project, cell-based, plate reader, cherry pick (AID 743444); type: functional;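 note: transfected HEK 293 cells stimulated with alpha-MSH peptide; potency of inhibitors of the alpha-MSH evoked signal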
[14] = target: T2, Oxysterols receptor LXR-beta (Homo sapiens, UniProt P55055); type: functional, cell-based;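 note: Cell-based luminescence dose-response assay of agonist activity at LXR, run as a confirmatory counterscreen to a daf-12 agonist screen; HEK293 cells with Gal4-LXR fusion and GAL4-driven luciferase reporter; agonist potency from rising luciferase signal of a Gal4-LXR reporter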
T2 sequence (P55055 whole entry): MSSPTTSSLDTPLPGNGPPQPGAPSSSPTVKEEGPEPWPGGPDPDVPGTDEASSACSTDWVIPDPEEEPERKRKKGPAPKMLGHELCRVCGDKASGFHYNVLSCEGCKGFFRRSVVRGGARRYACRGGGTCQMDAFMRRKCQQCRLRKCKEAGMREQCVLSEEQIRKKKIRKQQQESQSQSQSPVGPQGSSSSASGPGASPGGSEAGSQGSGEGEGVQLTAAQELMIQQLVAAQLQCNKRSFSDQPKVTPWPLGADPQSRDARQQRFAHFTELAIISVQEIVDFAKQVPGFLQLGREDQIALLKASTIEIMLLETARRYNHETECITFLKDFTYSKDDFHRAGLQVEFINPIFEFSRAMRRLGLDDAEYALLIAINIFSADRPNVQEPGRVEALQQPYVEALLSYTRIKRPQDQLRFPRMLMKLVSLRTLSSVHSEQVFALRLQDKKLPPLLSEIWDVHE

cells [15] = assay: cells
Leucine aminopeptidase = target: T3, Leucine aminopeptidase (Plasmodium falciparum 3D7, UniProt Q8IL11); assay: P. falciparum M17LAP inhibitors, primary screen, biochemical, fluorogenic H-Leu-NHMec substrate, 1536-well (AID 1619); type: functional
T3 sequence (Q8IL11 whole entry): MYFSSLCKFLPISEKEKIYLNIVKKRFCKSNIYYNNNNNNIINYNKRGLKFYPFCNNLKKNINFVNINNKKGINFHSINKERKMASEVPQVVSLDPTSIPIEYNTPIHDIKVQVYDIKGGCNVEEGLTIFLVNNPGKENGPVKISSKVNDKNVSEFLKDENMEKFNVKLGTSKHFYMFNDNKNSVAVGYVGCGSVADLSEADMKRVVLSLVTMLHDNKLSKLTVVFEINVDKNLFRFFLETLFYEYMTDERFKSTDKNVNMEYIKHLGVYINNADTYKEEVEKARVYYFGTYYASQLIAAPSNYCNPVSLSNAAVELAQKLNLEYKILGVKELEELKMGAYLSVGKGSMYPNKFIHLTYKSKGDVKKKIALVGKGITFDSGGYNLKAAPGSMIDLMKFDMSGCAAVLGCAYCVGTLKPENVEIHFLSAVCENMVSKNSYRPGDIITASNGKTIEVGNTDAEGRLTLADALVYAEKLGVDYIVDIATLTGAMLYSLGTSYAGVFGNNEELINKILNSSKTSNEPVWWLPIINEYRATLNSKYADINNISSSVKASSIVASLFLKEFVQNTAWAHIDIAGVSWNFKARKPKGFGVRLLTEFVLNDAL

BJ [16] = assay: cytotoxicity toward BJ-TERT fibroblasts, dose response, cell-based, RAS-independent, luminescence (AID 1933); type: functional; details: Homo sapiens
BJ [17] = assay: cells; type: functional, cell-based; details: Homo sapiens
BJ [18] = assay: cytotoxicity toward BJ-TERT-LT-ST fibroblasts, dose response, cell-based, RAS-independent, luminescence (AID 1935); type: functional; details: Homo sapiens;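 note: BJ fibroblasts immortalized with TERT plus LT and ST oncogenes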
[19] = cytotoxicity toward DRD oncogenic fibroblasts, dose response, cell-based, non-viral oncogenic, luminescence (AID 1934); type: functional; details: Homo sapiens
Galanin receptor type 3 = target: T4, Galanin receptor type 3 (Homo sapiens, UniProt O60755); assay: Fluorescence-based cell-based primary high throughput dose response assay to identify antagonists of the Galanin Receptor 3 (GalR3).; type: functional
T4 sequence (O60755 whole entry): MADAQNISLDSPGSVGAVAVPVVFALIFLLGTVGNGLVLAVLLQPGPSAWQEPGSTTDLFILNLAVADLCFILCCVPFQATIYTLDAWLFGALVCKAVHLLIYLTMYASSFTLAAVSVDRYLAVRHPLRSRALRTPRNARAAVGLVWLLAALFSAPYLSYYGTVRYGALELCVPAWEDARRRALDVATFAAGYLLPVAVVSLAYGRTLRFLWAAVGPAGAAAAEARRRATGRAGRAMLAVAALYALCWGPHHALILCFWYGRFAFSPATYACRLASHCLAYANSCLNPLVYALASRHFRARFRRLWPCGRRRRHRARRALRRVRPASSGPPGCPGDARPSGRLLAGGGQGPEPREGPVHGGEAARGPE

cells [20] = type: functional, cell-based; details: HEK-CNG
[21] = HepG2 cell cytotoxicity, dose response, cytotoxicity control, ATP luminescence, cherry-pick, set 6 (AID 1053125); type: functional, cell-based
cells [22] = details: A549
cells [23] = details: HEK293
Paired box protein Pax-8 = Paired box protein Pax-8 (Homo sapiens, UniProt Q06710); assay: inhibitors of PAX8-driven TPO luciferase reporter, dose response, RMG-I cells, cherry-pick (AID 687027); type: functional, cell-based;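 note: luciferase reporter driven by Pax8 target thyroperoxidase promoter measured by SteadyGlo luminescence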
[24] = IOSE-T80 ovarian epithelial cell cytotoxicity, dose response, cytotoxicity control for PAX8 inhibitor project, plate reader, dry powder samples (AID 743045); type: functional, cell-based
[25] = NIH:OVCAR-3 ovarian cancer cell cytotoxicity, dose response, PAX8 inhibitor project, plate reader, dry powder samples (AID 743044); type: functional, cell-based
[26] = IGROV1 ovarian cancer cell cytotoxicity, dose response, PAX8 inhibitor project, plate reader, dry powder samples (AID 743043); type: functional, cell-based; details: IGROV-1
[27] = cytotoxicity in OVCAR8 ovarian cancer cells, dose response, PAX8 project, cell-based, plate reader, dry powder samples (AID 743197); type: functional; details: OVCAR-8
Vero [28] = assay: cells; type: functional, cell-based; details: Chlorocebus sabaeus
Vero [29] = assay: cells; type: functional; details: Chlorocebus sabaeus
[30] = A Cell-Based Counter Screen testing Compounds that Inhibit VEEV TC-83, in strain KU V3526.; type: functional
[31] = A Cell-Based Confirmatory Screen for Compounds that Inhibit VEEV, TC-83 (8).; type: functional
[32] = A Cell-Based Confirmatory Screen for Compounds that Inhibit VEEV, TC-83 (2).; type: functional
[33] = target: T5, Methionyl-tRNA synthetase, putative (Trypanosoma brucei brucei, UniProt Q38C91); type: functional, Trypanosoma brucei brucei strain 927/4 GUTat10.1
T5 sequence (Q38C91 whole entry): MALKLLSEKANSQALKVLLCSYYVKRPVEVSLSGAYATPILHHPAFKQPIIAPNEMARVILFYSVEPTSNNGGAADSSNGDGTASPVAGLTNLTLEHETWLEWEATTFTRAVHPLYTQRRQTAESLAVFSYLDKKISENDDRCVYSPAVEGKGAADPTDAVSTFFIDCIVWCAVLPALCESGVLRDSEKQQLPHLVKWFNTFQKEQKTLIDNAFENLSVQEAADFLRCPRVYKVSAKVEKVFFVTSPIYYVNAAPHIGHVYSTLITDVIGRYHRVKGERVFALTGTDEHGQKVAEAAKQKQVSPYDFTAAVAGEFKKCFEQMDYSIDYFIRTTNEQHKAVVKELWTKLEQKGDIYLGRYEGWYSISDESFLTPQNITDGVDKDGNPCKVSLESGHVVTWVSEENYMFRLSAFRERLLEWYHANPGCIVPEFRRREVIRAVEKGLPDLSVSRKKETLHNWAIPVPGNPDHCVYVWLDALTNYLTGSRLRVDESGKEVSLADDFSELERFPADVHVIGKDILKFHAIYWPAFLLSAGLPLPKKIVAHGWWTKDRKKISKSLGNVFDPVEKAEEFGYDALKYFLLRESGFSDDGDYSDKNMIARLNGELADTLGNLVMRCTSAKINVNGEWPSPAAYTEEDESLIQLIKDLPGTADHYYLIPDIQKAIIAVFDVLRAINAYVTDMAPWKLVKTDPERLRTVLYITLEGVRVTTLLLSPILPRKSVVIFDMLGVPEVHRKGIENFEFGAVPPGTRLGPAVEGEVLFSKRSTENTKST

[34] = Counterscreen for inhibitors of Trypanosoma brucei methionyl tRNA synthetase (MetRS): Luminescence-based cell-based high throughput dose response assay to identify compounds that are cytotoxic to Jurkat human T lymphocyte cells.; type: functional
[35] = target: T5, Methionyl-tRNA synthetase, putative; type: functional, Trypanosoma brucei brucei strain 927/4 GUTat10.1; remark: listed apart in the source
[36] = Late stage counterscreen for inhibitors of Trypanosoma brucei methionyl tRNA synthetase (MetRS): Luminescence-based cell-based high throughput dose response assay to identify compounds that are cytotoxic to Jurkat human T lymphocyte cells.; type: functional

Kallikrein-7, sequence (P49862 whole entry): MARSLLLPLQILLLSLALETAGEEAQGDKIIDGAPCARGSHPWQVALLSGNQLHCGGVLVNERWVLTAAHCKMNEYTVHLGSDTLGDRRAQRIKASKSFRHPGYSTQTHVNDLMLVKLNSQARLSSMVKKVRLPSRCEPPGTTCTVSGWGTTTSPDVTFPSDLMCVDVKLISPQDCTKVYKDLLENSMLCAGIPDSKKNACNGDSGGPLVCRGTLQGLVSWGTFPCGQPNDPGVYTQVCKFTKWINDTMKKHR
Paired box protein Pax-8, sequence (Q06710 whole entry): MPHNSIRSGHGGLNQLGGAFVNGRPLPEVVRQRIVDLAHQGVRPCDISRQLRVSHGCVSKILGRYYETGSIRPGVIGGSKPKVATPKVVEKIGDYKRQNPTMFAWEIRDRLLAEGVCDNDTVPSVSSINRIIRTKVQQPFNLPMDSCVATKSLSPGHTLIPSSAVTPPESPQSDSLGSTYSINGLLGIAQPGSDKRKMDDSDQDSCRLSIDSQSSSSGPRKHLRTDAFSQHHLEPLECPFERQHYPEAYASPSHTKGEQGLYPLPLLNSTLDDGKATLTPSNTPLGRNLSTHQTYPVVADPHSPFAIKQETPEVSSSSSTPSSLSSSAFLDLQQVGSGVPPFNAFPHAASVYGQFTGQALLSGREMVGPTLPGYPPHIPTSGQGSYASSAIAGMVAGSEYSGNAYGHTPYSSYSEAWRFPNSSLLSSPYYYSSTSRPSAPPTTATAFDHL

COc1c(CC=C(C)C)cc(C2CC(=O)c3c(O)cc(O)cc3O2)cc1CC=C(C)C (configuration not stated)
EC50 [1]: 2.47 µM (active)
EC50 [2]: 11.8 µM (active)
EC50 (Streptococcus): 3.2 µM (active)
AC50 [3]: 3.04 µM (active)
AC50 (INS1): 4.52 µM (active)
AC50 [4]: 5.42 µM (active)
AC50 [5]: 2.82 µM (active)
AC50 [6]: 24.6 µM (active)

COc1ccccc1-c1nnc(SCc2ccccn2)o1
IC90 [7]: 31 µM (active)
IC90 [8]: 31 µM (active)

Cc1ccc2nc(NCC(=O)O)nc(-c3ccccc3)c2c1
EC50 (Kallikrein-7): 14.5 µM (inactive)

Cc1ccc2[nH]c(CSc3nc(C)ccc3C#N)nc2c1
EC50 [9]: > 120 µM (not active)
AC50 [10]: > 52 µM (inactive)
AC50 [11]: > 52 µM (inactive)
AC50 [12]: 30.8 µM (active)
AC50 [13]: 33.5 µM (active)
EC50 [14]: > 67.5 µM (inactive)
EC50 (cells [15]): > 67.5 µM (inactive)

COc1ccc(N2C(C)=CC(=Cc3sc4ccccc4[n+]3C)C=C2C)cc1
IC50 (Leucine aminopeptidase): 60.3 µM (active)
EC50 (BJ [16]): 0.359 µM (inconclusive)
EC50 (BJ [17]): 1.38 µM (active)
EC50 (BJ [18]): 4 µM (inconclusive)
EC50 [19]: 2.06 µM (inconclusive)
IC50 (Galanin receptor type 3): 0.246 µM (active)
EC50 (cells [20]): > 29.9 µM (inactive)
AC50 [21]: 14.3 µM (active)
AC50 (cells [22]): 0.315 µM (active)
AC50 (cells [23]): 3.36 µM (active)

COc1cccc(S(=O)(=O)N2CC[C@@H]3[C@@H](CO)Nc4ccc(-c5ccccc5OC)cc4[C@@H]32)c1
AC50 (Paired box protein Pax-8): 10.6 µM (active)
AC50 [24]: 33 µM (active)
AC50 [25]: 19.6 µM (active)
AC50 [26]: 36.5 µM (active)
AC50 [27]: 31.1 µM (active)

O=c1nc(Nc2ccc(OCc3ccccc3)cc2)sc2ncccc12
IC50 (Vero [28]): 2.86 µM (active)
CC50 (Vero [29]): > 25 µM (active)
IC50 [30]: 2.38 µM (active)
IC50 [31]: 0.94 µM (active)
IC50 [32]: 2.79 µM (active)

CCO[C@H]1OC(C(=O)NCc2nc3ccccc3[nH]2)=C[C@@H](c2ccc(Br)cc2)[C@@H]1CCCO
IC50 [33]: 8.41 µM (active)
IC50 [34]: 83.3 µM (inactive)
IC50 [35]: 5.73 µM (active)
IC50 [36]: 57 µM (inactive)
